Source: patent publication US7816351B2, “5,6-dimethylthieno[2,3-di] pyrimidine derivatives, the preparation method thereof and the pharmaceutical composition comprising the same for anti-virus” (Equispharm Co., Ltd, priority 2005, dated 2010)

The molecules below were run on hepatitis C virus replicon NK-R2AN in Huh-7 cells (assay: microbe, parasite or virus in culture). Details: Huh-7 cells containing replicon NK-R2AN, 48 hours, renilla luciferase activity relative to protein amount, read-out: HCV replicon inhibitory activity (EC50).
Assay type: cell-based

Question: For `Cc1sc2nc(N3CCN(C(=O)c4ccccn4)CC3)nc(Nc3ccc(N4CCOCC4)nc3)c2c1C` [Example 4, 4-[5,6-dimethyl-4-(6-morpholinopyridin-3-ylamino)-thieno[2,3-d]pyrimidin-2-yl]-piperazin-1-yl-pyridin-2-yl-methanone], which EC50 is on record?
Answer: The EC50 was 710 nM.

Question: How did the EC50 turn out when `Cc1sc2nc(N3CCN(C(=O)c4cccnc4)CC3)nc(Nc3ccc(N4CCOCC4)cc3)c2c1C` [Example 2, 4-[5,6-dimethyl-4-(4-morpholin-4-yl-phenylamino)-thieno[2,3-d]pyrimidin-2-yl]-piperazin-1-yl-pyridin-3-yl-methanone] was run?
Answer: The EC50 was 450 nM.

Question: `Cc1sc2nc(N3CCN(C(=O)c4ccncc4)CC3)nc(Nc3ccc(N4CCOCC4)cc3)c2c1C` [Example 3, 4-[5,6-dimethyl-4-(4-morpholin-4-yl-phenylamino)-thieno[2,3-d]pyrimidin-2-yl]-piperazin-1-yl-pyridin-4-yl-methanone] was tested. Which EC50 did it give?
Answer: Its EC50 is 480 nM.

Question: `Cc1sc2nc(N3CCN(C(=O)c4ccccn4)CC3)nc(Nc3ccc(N4CCOCC4)cc3)c2c1C` [Example 1, 4-[5,6-dimethyl-4-(4-morpholin-4-yl-phenylamino)-thieno[2,3-d]pyrimidin-2-yl]-piperazin-1-yl-pyridin-2-yl-methanone] was tested. Which EC50 did it give?
Answer: Its EC50 is 680 nM.

Question: Which EC50 does the source give for `Cc1sc2nc(N3CCN(C(=O)c4cccnc4)CC3)nc(Nc3ccc(N4CCOCC4)nc3)c2c1C` [Example 5, 4-[5,6-dimethyl-4-(6-morpholinopyridin-3-ylamino)-thieno[2,3-d]pyrimidin-2-yl]-piperazin-1-yl-pyridin-3-yl-methanone] here?
Answer: Its EC50 is 510 nM.
